Measured values published in US20160193216A1 (Nimbus Iris, Inc., priority 2012, published 2016).
Where a name gives a salt, the structure may show the parent alone.

These compounds were tested against T1, IRAK4 (Homo sapiens, UniProt Q9NWZ3) (assay: IRAK-4 activity inhibition assay (Caliper)). Details: 37 μM ATP, 3.5 nM IRAK4.
T1 sequence (Q9NWZ3 1-460): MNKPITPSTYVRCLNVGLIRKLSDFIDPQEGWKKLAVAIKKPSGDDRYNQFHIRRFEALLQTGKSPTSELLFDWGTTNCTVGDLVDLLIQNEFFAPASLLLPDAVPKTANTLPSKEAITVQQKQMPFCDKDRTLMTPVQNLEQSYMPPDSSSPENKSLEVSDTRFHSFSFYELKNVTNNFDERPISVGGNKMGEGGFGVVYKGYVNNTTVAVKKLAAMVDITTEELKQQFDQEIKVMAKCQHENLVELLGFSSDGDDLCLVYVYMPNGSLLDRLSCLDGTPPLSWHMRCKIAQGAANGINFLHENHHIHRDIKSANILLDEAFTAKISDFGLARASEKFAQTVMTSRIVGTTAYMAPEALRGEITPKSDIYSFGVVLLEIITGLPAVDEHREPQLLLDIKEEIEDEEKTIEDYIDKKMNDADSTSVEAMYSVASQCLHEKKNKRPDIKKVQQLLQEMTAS
Type: biochemical

SMILES	IC50
CN(C)[C@H]1CC[C@H](Oc2ncnc3sc4c(c23)[C@H](CC(=O)Nc2ccc(F)cn2)CC4)CC1 [Compound I-38, 2-[(3S)-12-[[4-(dimethylamino)cyclohexyl]oxy]-7-thia-9,11-diazatricyclo[6.4.0.0[2,6]]dodeca-1(8),2(6),9,11-tetraen-3-yl]-N-(5-fluoropyridin-2-yl)acetamide]	20 to 50 µM
NC(=O)C[C@H]1CCc2sc3ncnc(O[C@H]4CC[C@H](N5CCN(Cc6ccccc6)CC5)CC4)c3c21 [Compound I-122, 2-[(3R)-12-[[4-(4-benzylpiperazin-1-yl)cyclohexyl]oxy]-7-thia-9,11-diazatricyclo[6.4.0.0[2,6]]dodeca-1(12),2(6),8,10-tetraen-3-yl]acetamide]	< 5 µM
CN(C)[C@H]1CC[C@H](Nc2ncnc3sc4c(c23)C(CC(=O)O)CC4)CC1 (stereo partly shown) [Compound I-18]	5 to 20 µM
COCCC1CCc2sc3ncnc(O[C@H]4CC[C@H](N(C)C)CC4)c3c21 (stereo partly shown) [Compound I-32, 4-[[3-(2-methoxyethyl)-7-thia-9,11-diazatricyclo[6.4.0.0[2,6]]dodeca-1(8),2(6),9,11-tetraen-12-yl]oxy]-N,N-dimethylcyclohexan-1-amine]	< 5 µM
CN(CC(=O)N1CCCC1)[C@H]1CC[C@H](Nc2ncnc3sc4c(c23)[C@@H](CCO)CC4)CC1 [Compound I-116, 2-(((1R,4r)-4-(((R)-5-(2-hydroxyethyl)-6,7-dihydro-5H-cyclopenta[4,5]thieno[2,3-d]pyrimidin-4-yl)amino)cyclohexyl)(methyl)amino)-1-(pyrrolidin-1-yl)ethanone]	< 5 µM
CN(C)[C@H]1CC[C@H](Oc2ncnc3sc4c(c23)[C@@H](C[C@H](O)C(N)=O)CC4)CC1 [Compound I-74, (2S)-3-[(3R)-12-[[4-(dimethylamino)cyclohexyl]oxy]-7-thia-9,11-diazatricyclo[6.4.0.0̂[2,6]]dodeca-1(8),2(6),9,11-tetraen-3-yl]-2-hydroxypropanamide]	< 5 µM
CN(C)[C@H]1CC[C@H](Oc2ncnc3sc4c(c23)C[C@@H](CCO)CC4)CC1 [Compound I-111, 2-[(12S)-3-[[4-(dimethylamino)cyclohexyl]oxy]-8-thia-4,6-diazatricyclo[7.4.0.0[2,7]]trideca-1(9),2(7),3,5-tetraen-12-yl]ethan-1-ol formate]	< 5 µM
CN(C)[C@H]1CC[C@H](Oc2ncnc3sc4c(c23)[C@H](CCO)CC4)CC1 [Compound I-33, 2-[(3S)-12-[[4-(dimethylamino)cyclohexyl]oxy]-7-thia-9,11-diazatricyclo[6.4.0.0[2,6]]dodeca-1(12),2(6),8,10-tetraen-3-yl]ethan-1-ol]	< 5 µM
CC[C@@H](C[C@H]1CCc2sc3ncnc(O[C@H]4CC[C@H](N(C)C)CC4)c3c21)OC [Compound I-119, (1R,4r)-4-(((R)-5-((S)-2-methoxybutyl)-6,7-dihydro-5H-cyclopenta[4,5]thieno[2,3-d]pyrimidin-4-yl)oxy)-N,N-dimethylcyclohexanamine]	< 5 µM
CC[C@]1(N(C)C)CC[C@H](Oc2ncnc3sc4c(c23)[C@@H](CC(N)=O)CC4)CC1 [Compound I-95, 2-[(3R)-12-[[4-(dimethylamino)-4-ethylcyclohexyl]oxy]-7-thia-9,11-diazatricyclo[6.4.0.0[2,6]]dodeca-1(8),2(6),9,11-tetraen-3-yl]acetamide]	< 5 µM
OCC[C@H]1CCc2sc3ncnc(O[C@H]4CC[C@H](N5CCOCC5)CC4)c3c21 [Compound I-66, 2-[(3R)-12-[[4-(morpholin-4-yl)cyclohexyl]oxy]-7-thia-9,11-diazatricyclo[6.4.0.0[2,6]]dodeca-1(12),2(6),8,10-tetraen-3-yl]ethan-1-ol]	< 5 µM
CN(C)[C@H]1CC[C@H](Oc2ncnc3sc4c(c23)[C@@H](C[C@H](O)C(F)(F)F)CC4)CC1 [Compound I-70, (S)-3-((R)-4-(((1r,4R)-4-(dimethylamino)cyclohexyl)oxy)-6,7-dihydro-5H-cyclopenta[4,5]thieno[2,3-d]pyrimidin-5-yl)-1,1,1-trifluoropropan-2-ol]	< 5 µM
CN(C)[C@H]1CC[C@H](Oc2ncnc3sc4c(c23)[C@@H](CC(O)c2ncco2)CC4)CC1 (mixture of isomers) [Compound I-60, 2-[(3R)-12-[[4-(dimethylamino)cyclohexyl]oxy]-7-thia-9,11-diazatricyclo[6.4.0.0[2,6]]dodeca-1(8),2(6),9,11-tetraen-3-yl]-1-(1,3-oxazol-2-yl)ethan-1-ol]	< 5 µM

Now from value to compound:

IC50	SMILES
20 to 50 µM	CC(=O)N1Cc2sc3ncnc(O[C@H]4CC[C@H](N5CCOCC5)CC4)c3c2C1 [Compound I-198, 1-(12-[[4-(morpholin-4-yl)cyclohexyl]oxy]-7-thia-4,9,11-triazatricyclo[6.4.0.0[2,6]]dodeca-1(12),2(6),8, 10-tetraen-4-yl)ethan-1-one]
< 5 µM	CCCOC(=O)N1CCc2sc3ncnc(N[C@H]4CC[C@H](N5CCOCC5)CC4)c3c2C1 [Compound I-186, propyl 3-[[4-(morpholin-4-yl)cyclohexyl]amino]-8-thia-4,6, 12-triazatricyclo[7.4.0.0[2,7]]trideca-1(9),2(7),3,5-tetraene-12-carboxylate]
20 to 50 µM	CN(C)[C@H]1CC[C@H](Oc2ncnc3sc4c(c23)CN(C(=O)CCCO)CC4)CC1 [Compound I-190, 1-(3-[[4-(dimethylamino)cyclohexyl]oxy]-8-thia-4,6, 12-triazatricyclo[7.4.0.0[2,7]]trideca-1(9),2,4,6-tetraen-12-yl)-4-hydroxybutan-1-one]
< 5 µM	CN(C)[C@H]1CC[C@H](Oc2ncnc3sc4c(c23)CN(S(N)(=O)=O)CC4)CC1 [Compound I-238, 3-[[4-(dimethylamino)cyclohexyl]oxy]-8-thia-4,6, 12-triazatricyclo[7.4.0.0[2,7]]trideca-1(9),2(7),3,5-tetraene-12-sulfonamide]
< 5 µM	CC[C@H](C[C@H]1CCc2sc3ncnc(N[C@H]4CC[C@H](N(C)C)CC4)c3c21)OC [Compound I-147, (1r,4R)-N1-((R)-5-((R)-2-methoxybutyl)-6,7-dihydro-5H-cyclopenta[4,5]thieno[2,3-d]pyrimidin-4-yl)-N4,N4-dimethylcyclohexane-1,4-diamine]
< 5 µM	CN(C)[C@H]1CC[C@H](Oc2ncnc3sc4c(c23)CN(S(=O)(=O)CCO)CC4)CC1 [Compound I-209, 2-(3-[[4-(dimethylamino)cyclohexyl]oxy]-8-thia-4,6, 12-triazatricyclo[7.4.0.0[2,7]]trideca-1(9),2,4,6-tetraene-12-sulfonyl)ethan-1-ol]
< 5 µM	CN(C)[C@H]1CC[C@H](Oc2nc(Nc3ccc(N4CCNCC4)cc3)nc3sc4c(c23)C(CC(N)=O)CC4)CC1 (mixture of isomers) [Compound I-205, 2-(12-[[4-(dimethylamino)cyclohexyl]oxy]-10-[[4-(piperazin-1-yl)phenyl]amino]-7-thia-9, 11-diazatricyclo[6.4.0.0[2,6]]dodeca-1(12),2(6),8, 10-tetraen-3-yl)acetamide]
< 5 µM	OC[C@H]1CCc2sc3ncnc(O[C@H]4CC[C@H](N5CCOCC5)CC4)c3c2C1 [Compound I-216, [(12S)-3-[[4-(morpholin-4-yl)cyclohexyl]oxy]-8-thia-4,6-diazatricyclo[7.4.0.0[2,7]]trideca-1(9),2(7),3,5-tetraen-12-yl]methanol]
< 5 µM	OC[C@@H]1CCc2sc3ncnc(N[C@H]4CC[C@H](N5CCOCC5)CC4)c3c2C1 [Compound I-211, [(12R)-3-[[4-(morpholin-4-yl)cyclohexyl]amino]-8-thia-4,6-diazatricyclo[7.4.0.0[2,7]]trideca-1(9),2,4,6-tetraen-12-yl]methanol]
< 5 µM	CNC1CCC(Oc2ncnc3sc4c(c23)[C@@H](C[C@H](N)C(N)=O)CC4)CC1 (stereo partly drawn) [Compound I-146, (2S)-2-amino-3-[(3R)-12-[[4-(methylamino)cyclohexyl]oxy]-7-thia-9,11-diazatricyclo[6.4.0.0[2,6]]dodeca-1(8),2(6),9,11-tetraen-3-yl]propanamide]
< 5 µM	NC(=O)C[C@H]1CCc2sc3ncnc(OC4CCC(NC5COC5)CC4)c3c21 (stereo partly drawn) [Compound I-132, 2-[(3R)-12-([4-[(oxetan-3-yl)amino]cyclohexyl]oxy)-7-thia-9,11-diazatricyclo[6.4.0.0[2,6]]dodeca-1(8),2(6),9,11-tetraen-3-yl]acetamide]
< 5 µM	NC(=O)C[C@H]1CCc2sc3ncnc(O[C@H]4CC[C@H](N)CC4)c3c21 [Compound I-150, 2-[(3R)-12-[(4-aminocyclohexyl)oxy]-7-thia-9,11-diazatricyclo[6.4.0.0[2,6]]dodeca-1(12),2(6),8,10-tetraen-3-yl]acetamide]
< 5 µM	CN(C)[C@H]1CC[C@H](Oc2ncnc3sc4c(c23)CN(C(N)=O)CC4)CC1 [Compound I-201, 3-[[4-(dimethylamino)cyclohexyl]oxy]-8-thia-4,6, 12-triazatricyclo[7.4.0.0[2,7]]trideca-1(9),2,4,6-tetraene-12-carboxamide]
< 5 µM	COCCN(CCOC)[C@H]1CC[C@H](Oc2ncnc3sc4c(c23)[C@@H](CC(N)=O)CC4)CC1 [Compound I-134, 2-[(3R)-12-([4-[bis(2-methoxyethyl)amino]cyclohexyl]oxy)-7-thia-9,11-diazatricyclo[6.4.0.0[2,6]]dodeca-1(12),2(6),8,10-tetraen-3-yl]acetamide]
< 5 µM	CN[C@H]1CC[C@H](Oc2ncnc3sc4c(c23)[C@@H](C[C@H]2NC(=O)NC2=O)CC4)CC1 [Compound I-159, (5R)-5-[[(3R)-12-[[4-(methylamino)cyclohexyl]oxy]-7-thia-9,11-diazatricyclo[6.4.0.0[2,6]]dodeca-1(8),2(6),9,11-tetraen-3-yl]methyl]imidazolidine-2,4-dione]
